Where “and” joins values, the source holds several entries; their conditions need not be identical. Identical values can stand only once. Like-named read-outs stand apart in the source and are kept apart here.

For series [1] the following is noted: cited from earlier work.
Series [2] in a line: Solubility of diffusion coefficient enhancers in propylene glycol and caprylyl methicone. Format: physicochemical. Particulars: 23-25° C. From the text: As described previously, diffusion coefficient-enhancing excipients (DC enhancers) commonly comprise alcohol, acid or ester derivatives of C8-C22 hydrocarbons.
Conversely, lower carbon chain length acids and alcohols such as C8 and C10 alcohols and C8 and C10 acids may be considered to be far too soluble in hydrocarbyl methyl siloxanes including caprylyl methicone, such that their performance as diffusion coefficient-enhancing excipients would be adversely affected. Similarly, medium chain (for instance C14-C16) isopropyl esters are far too soluble in hydrocarbyl methyl siloxanes such as caprylyl methicone to allow performance as DC enhancers. For both of these classes of DC enhancer, up to 50% DC enhancer would be required to be at or near saturation in the non-volatile residual phase. In contrast, the C12-C14 acids and C14 alcohol have appropriate solubility in caprylyl methicone.
As an example of the outline design of a simple co-enhancer system comprising propylene glycol, and, for example, a C14 alcohol diffusion coefficient enhancer with caprylyl methicone, we might first consider that the concentration of propylene glycol and caprylyl methicone in the final composition (otherwise consisting of non-solvents) to be 25% of each. On this basis, the total amount of C14 alcohol to saturate both of these phases would be 2.44%/4+2.30%/4=1.185%, approximately 1.2%. […]

The conditions of series [3]: oral dosage; cited from earlier work.
The test system of a further series is IL-6. Particulars: NAM at 500 μm, the only dose studied; cited from earlier work.
For series [4], the target named is T1, PARP-1 (Homo sapiens, UniProt P09874). Particulars: NAM 50 μM; cited from earlier work.
In another series the test system is actinic keratoses. Particulars: high oral dose, placebo-controlled; cited from earlier work.
The test system of another series is bullous pemphigoid. Particulars: oral 2 g/day with -cycline antibiotics; cited from earlier work.
The test system of series [5] is women with symmetrical pigmentation. Particulars: 5% and 2% NAM moisturizer; cited from earlier work.
In series [6] the target is T1, PARP-1. The series can be described thus: PARP-1 inhibition in vitro (Park J, 2010). It is filed as biochemical.
The next series concerns human keratinocytes. Particulars: cited from earlier work.
The next series relates to IL-8. Particulars: keratinocytes; cited from earlier work.
For series [7], the system named is melanosome transfer from melanocytes to keratinocytes. Particulars: cited from earlier work.
Series [8] has as its system non-melanoma human skin cancers. Particulars: cited from earlier work.
In series [9] the test system is AKs in transplant recipients. Particulars: cited from earlier work.
Series [10] has as its system IL-1 beta, IL-6, IL-8 and TNF alpha. Particulars: endotoxin-induced model; cited from earlier work.
The conditions of series [11]: cited from earlier work. The source holds these as a separate data set.
Series [12] relates to patients with mild-moderate psoriasis. Particulars: end of 12 weeks; cited from earlier work.
A short description of series [13]: Saturated solubility of corticosteroids in liquid silicones. Particulars: including caprylyl methicone. Format: physicochemical.
Another series concerns murine flank skin. Particulars: 10% PHA applied to murine flank skin; cited from earlier work.
The test system of a further series is human SC. Particulars: 5% PHA in propylene glycol/myrystyl alcohol co-enhancer non-silicone cream; up to; cited from earlier work.
For series [14], the system named is acute radiation dermatitis. Particulars: topical cream; cited from earlier work.
Another series concerns melasma. Particulars: oral, over 12 weeks; cited from earlier work.

T1 sequence (P09874 whole entry, species assumed): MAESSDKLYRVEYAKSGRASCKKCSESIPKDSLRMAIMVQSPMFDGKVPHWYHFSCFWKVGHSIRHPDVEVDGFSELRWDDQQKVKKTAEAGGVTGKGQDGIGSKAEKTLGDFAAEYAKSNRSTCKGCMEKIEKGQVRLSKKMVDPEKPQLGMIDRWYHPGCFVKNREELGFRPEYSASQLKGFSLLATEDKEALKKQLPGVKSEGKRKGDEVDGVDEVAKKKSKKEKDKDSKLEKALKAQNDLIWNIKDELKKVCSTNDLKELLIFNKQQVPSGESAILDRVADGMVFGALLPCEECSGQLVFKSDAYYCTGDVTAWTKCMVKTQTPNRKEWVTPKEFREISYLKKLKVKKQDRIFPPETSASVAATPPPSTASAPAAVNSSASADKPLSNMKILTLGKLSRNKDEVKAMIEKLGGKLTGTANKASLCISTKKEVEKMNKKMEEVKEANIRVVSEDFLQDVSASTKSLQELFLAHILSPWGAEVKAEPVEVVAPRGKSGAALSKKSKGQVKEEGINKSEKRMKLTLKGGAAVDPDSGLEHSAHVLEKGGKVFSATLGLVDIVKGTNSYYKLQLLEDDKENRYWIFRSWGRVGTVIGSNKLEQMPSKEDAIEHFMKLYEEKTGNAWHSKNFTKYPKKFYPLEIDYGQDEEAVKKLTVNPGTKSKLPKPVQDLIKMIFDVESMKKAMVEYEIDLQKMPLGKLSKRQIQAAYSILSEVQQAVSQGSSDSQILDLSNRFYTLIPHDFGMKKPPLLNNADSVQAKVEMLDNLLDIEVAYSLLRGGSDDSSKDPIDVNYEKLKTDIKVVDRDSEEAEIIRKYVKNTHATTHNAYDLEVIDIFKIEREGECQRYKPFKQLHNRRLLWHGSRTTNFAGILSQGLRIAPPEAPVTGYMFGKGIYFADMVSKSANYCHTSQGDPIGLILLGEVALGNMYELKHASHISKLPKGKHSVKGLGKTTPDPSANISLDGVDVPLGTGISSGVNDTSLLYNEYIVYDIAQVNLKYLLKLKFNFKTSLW

Regarding `CCCCCCCCCCCCCCO` [C14 alcohol, myristyl alcohol], the “logP O/W” value in series [1] is > 4.00. Besides, in series [2] (in caprylyl methicone), the “solubility of C14 alcohol in caprylyl methicone (amount to saturate)” value was determined as 2.30%. The “solubility of C14 alcohol in propylene glycol (amount to saturate)” value in series [2] (in propylene glycol) is given as 2.44%.

In the case of `NC(=O)c1cccnc1` [NAM, nicotinamide], the “half-life of decrease of peak concentrations in plasma and skin” value in series [3] is given as “approximately 90 minutes”. Further, the “reduction in IL-6 compared to untreated control” value in the series on IL-6 was 88%. Further, the PARP-1 inhibition on PARP-1 [4] is on record as 66%. The “effect on actinic keratoses” value in the series on actinic keratoses was “significantly reduced actinic keratoses”. In addition, the “time to total remission of bullous pemphigoid” value with bullous pemphigoid is on record as 6-8 weeks. Also, in series [5], the “reduction in hyperpigmented lesions” value is on record as “dose-dependent reduction in hyperpigmented lesions”. Besides, the “concentration predicted to be required for significant PARP-1 inhibition” value at PARP-1 [6] was 50 to 100 µM. Also, in the series on human keratinocytes (NAM 1-10 μM), the “ceramide biosynthesis, % of maximum response” value was 75%-100%. The “concentration at maximum of ceramide synthesis dose response” value in the series with human keratinocytes (in vitro) was ~10 µM. Further, the “increase in biosynthesis of ceramides and other stratum corneum lipids” value in the series with human keratinocytes (up to) is on record as “up to 5 fold”. Besides, the “concentration required to significantly inhibit P. acnes-induced IL-8 mRNA production” value in the series on IL-8 was 5.0 ug/ml and ~40 μM. Moreover, the “inhibition of melanosome transfer” value is 35-68% in series [7] (1.0 mmolL^−1 (1 mM) NAM, coculture model) and 14% in [7] (NAM 10 μM, after 3 days of treatment). For the same molecule, the “peritumoral and tumour infiltrating CD4+ and CD8+ lymphocytes versus placebo” value in series [8] (melanomas arising on treatment) was “statistically significantly increased”. For the same molecule, the “rates of new non-melanoma skin cancers and actinic keratoses” value in [8] (oral) was “safe and effective in reducing the rates”. For the same molecule, in series [9] (after six months, 18/19 patients), the “patients with AKs significantly decreased in size” value is given as 88%. Also, the “patients with complete clinical regression” value in [9] (seven patients) was 42%. Besides, the “concentration required for significant effects on proinflammatory cytokines” value in series [10] was 2,000 μM. Besides, the pKa (as a rule, the negative logarithm of the acid dissociation constant) in series [11] is ~3.5 and 3.5.

Consider `C=C1/C(=C\C=C2/CCC[C@]3(C)[C@@H]([C@H](C)/C=C/[C@@H](O)C4CC4)CC[C@@H]23)C[C@@H](O)C[C@@H]1O` [calcipotriol], for which the “reduction of PASI score” value in series [12] is reported as 77.8±9.7%.

Consider `CCC(=O)O[C@]1(C(=O)SCF)[C@H](C)C[C@H]2[C@@H]3C[C@H](F)C4=CC(=O)C=C[C@]4(C)[C@@]3(F)[C@@H](O)C[C@@]21C` [fluticasone propionate], for which the “saturated solubility in a range of liquid silicones” value in [13] is on record as “appropriately low”.

For `O=C1O[C@H](CO)[C@@H](O)[C@H](O)[C@H]1O` [gluconolactone], the “logP O/W” value in series [1] is −4.8.

Regarding `O=C(O)[C@H](O)[C@@H](O)[C@H](O[C@@H]1O[C@H](CO)[C@H](O)[C@H](O)[C@H]1O)[C@H](O)CO` [lactobionic acid], the “decrease in pH at all SC depths” value in the series on murine flank skin is recorded as 0.5-1.0 pH units. For the same molecule, the “logP O/W” value in series [1] is −4.8. Also, the “decrease in human SC pH in vivo” value with human SC is recorded as “up to 1.5 pH units”.

Regarding `C[C@@H]1C[C@H]2[C@@H]3CCC4=CC(=O)C=C[C@]4(C)[C@@]3(Cl)[C@@H](O)C[C@]2(C)[C@@]1(OC(=O)c1ccco1)C(=O)CCl` [mometasone furoate], the “reduction of acute radiation dermatitis versus emollient cream” value in series [14] is recorded as “significantly more effective than emollient cream alone”. Besides, the “saturated solubility in a range of liquid silicones” value in series [13] is given as “appropriately low”.

As to `NC[C@H]1CC[C@H](C(=O)O)CC1` [tranexamic acid], in the series with melasma, the “reduction in melasma (mMASI, MASI) scores” value is given as “approximately 50%”.
